Experimental data: US20150094229A1, “METHODS FOR THE SCREENING OF ANT[…]” (priority 2005, published 2015)
Entries after “also recorded” stand apart in the source; their conditions may differ. Where a SMILES comes first, the peptide text is derived from it. Where no end group is shown, it is not given here. [ ]: non-standard residue; d: D form.

Key:
Ldtfm [1] = test: Exchange assay with non-radioactive 2-amino and 2-hydroxy acid acceptors, products detected by mass spectrometry; assay type: biochemical, Enterococcus faecium; conditions: for Product Relative intensity (%): ionic current intensity (product/product + substrate), donor Ac2-L-Lys-D-Ala 0.3 mM, acceptor 0.3 mM, Ldtfm (3 g), 1 h at 37° C.; for use as acceptor substrate in the exchange reaction with Ac2-L-Lys-D-Ala as the donor: result in words
Excerpt: (§1) FIG. 9 (Ex FIG. 2). Identification and characterization of the L,D-transpeptidase of E. faecium M512. (A) Purification of the L,D-transpeptidase from an E. faecium M512 extract (lane 1) led to partial purification of a 48-kDa protein (lane 2). (B) The open reading frame for the 48-kDa protein was identified based on N-terminal sequencing ([…] [SEQ ID No 20], underlined) and similarity searches in the partial genome sequence of E. faecium. The partially purified 48-kDa protein corresponded to a proteolytic fragment since the sequence encoding its N-terminus was not preceded by a translation initiation codon. The upstream sequence contained a single likely translation initiation site (ACTTAAggag[…]atg [SEQ ID No 21]), consisting of an ATG initiation codon preceded by a putative ribosome binding site (lower case). The proteolytic cleavage removed the first 118 residues of the protein, including a cluster of hydrophobic residues at positions 13 to 28 (italicized), which could correspond to a membrane anchor. The C-terminus of Ldtfm (positions 340 to 466; bold) was related to a family of 341 sequences from eubacteria appearing in the Protein Families Database of Alignments under the pfam accession number PF03734. Ser439 and Cys442 (asterisks) are potential catalytic residues. (C) The portion of the open reading frame encoding the soluble protein partially purified form the E. faecium extract (positions 119 to 466) was cloned into E. coli and Ldtfm was purified with an overall yield of 3 mg per liter of culture. (D) The purified protein was active in an exchange reaction which assays for the capacity of the enzyme to catalyze cleavage of the L-Lys-D-Ala peptide bond of the model donor dipeptide substrate N^α,N^ε-diacetyl-L-lysyl-D-alanine (Ac2-L-Lys-D-Ala) and formation of a peptide bond between Ac2-L-Lys and D-[^14C]Ala. […] (F) The exchange assay was also performed with non-radioactive 2-amino and 2-hydroxy acids based on detection of the products by mass spectrometry and determination of their structure by tandem mass spectrometry, as exemplified by the fragmentation of Ac2-L-Lys-D-Met (m/z of 362.24). Loss of a C-terminal D-Met and of additional H2O led to ions at m/z 213.14 and 185.14, respectively. Ions at m/z 84.10 and 126.11 correspond to the immonium of L-Lys and its acetylated form, respectively.
To gain insight in the activity of Ldtfm, various 2-amino and 2-hydroxy acids were tested as potential acceptor substrates (Table 2) in an exchange reaction using the model dipeptide substrate Ac2-L-Lys-D-Ala as the donor (FIG. 9F). […] Hydrolysis of the C-terminal D-Ala of Ac2-L-Lys-D-Ala was not detected in the presence of a suitable acceptor substrate, indicating a biosynthetic function for Ldtfm, in contrast to the previously characterized L,D-carboxypeptidase involved in peptidoglycan recycling in E. coli (Templin et al., 1999).

[2] = test system: L,D-transpeptidase of E. faecium M512 (Ldtfm); test: Standard radioactive exchange assay (Ac2-L-Lys-D-Ala and D-[14C]Ala); assay type: biochemical, Enterococcus faecium; conditions: for use as donor: formation of radioactive peptides with D-[14C]Ala as the acceptor: 3 μg Ldtfm, 60 min, donor 1-5 mM
Excerpt: as §1
Preferably, the L,D-transpeptidase activity is assessed by performing a standard exchange assay that is based on incubation of non-radioactive Ac2-L-Lys-D-Ala and D-[^14C]Ala and determination of Ac2-L-Lys-D[^14C]Ala formed by the L,D-transpeptidase catalytic activity, such as disclosed by Mainardi et al. (J. L. Mainardi et al., J. Biol. Chem. 277, 35801 (2002)) as well as in the examples herein.
In an illustrative embodiment of said standard exchange assay, a reaction mixture is provided, which reaction mixture contains (i) purified L,D-transpeptidase, (ii) Ac2-L-Lys-D-Ala, (iii) D-[^14C]Ala and (iv) optionally the candidate inhibitor compound. Then the enzyme reaction is performed until completion, generally during a time period of […], most preferably […], at a temperature range comprised between 36° C. and 38° C., advantageously between 36.5° C. and 37.5° C., most preferably at 37° C. Then, the enzyme reaction is stopped, for example by boiling the resulting reaction product mixture for a time period sufficient to inactivate the enzyme, such as for a period of time ranging from 3 min to 20 min, most preferably a period of time of about 15 min.
Then, the resulting reaction product mixture is centrifuged and a sample collected from the supernatant of centrifugation is analysed by chromatography, preferably by carrying out a reverse phase high-pressure liquid chromatography (rpHPLC), most preferably with isocratic elution.
Detection of the labeled reaction product resulting from the L,D-transpeptidase catalytic activity may be performed simultaneously with said chromatographic step. […]

Ldtfm [3] = test: In vitro transpeptidation (formation of dimers from monomeric muropeptides, mass spectrometry); assay type: biochemical, Enterococcus faecium; conditions: pool of three muropeptides, Ldtfm 3 μg, 2 h at 37° C.
Description: FIG. 10 (Ex FIG. 3). […] (A) Ldtfm was incubated with a pool of three monomeric muropeptides containing the disaccharide GlcNAc-MurNAc substituted by three different stem peptides. […] Tetrapeptide-iAsn, L-Ala-D-iGln-L-(M-D-iAsn)Lys-D-Ala; Tripeptide-iAsn, L-Ala-D-iGln-L-(M-D-iAsn)Lys; Tetrapeptide, L-Ala-D-iGln-L-Lys-D-Ala. (B) Fragmentation was performed on the muropeptide lactoyl dimer at m/z 1118.5 which was obtained by ammonium hydroxide treatment of the dimer with a monoisotopic mass of 1927.88. The treatment cleaved off the disaccharide and converted D-iAsn into D-iAsp. (C) Structure of the dimer and inferred fragmentation pattern. […]
To assay for in vitro transpeptidation, the L,D-transpeptidase (3 μg) was incubated with the momomeric muropeptides GlcNAc-MurNAc-L-Ala-D-iGln-L-(M-D-iAsn)Lys-D-Ala (25 nmoles), GlcNAc-MurNAc-L-Ala-D-iGln-L-(M-D-iAsn)Lys (5 nmoles) and GlcNAc-MurNAc-L-Ala-D-iGln-L-Lys-D-Ala (5 nmoles) for 2 h at 37° C. in 25 μl of 5 mM sodium phosphate buffer (pH 6.0). The reaction was stopped by boiling the sample for 3 min and the mixture was centrifuged (10,000×g, 2 min). […] For tandem mass spectrometry analysis, the remaining of the reaction mixture was treated with ammonium hydroxyde to cleave the ether link internal to MurNAc (Arbeloa et al., 2004). The conditions for fragmentation of the resulting lactoyl-peptides with N2 as the collision gas were as previously described (Arbeloa et al., 2004).

[4] = target: T1, D-aspartate ligase (membrane or cytoplasmic extracts of E. faecium D359V8) (Enterococcus faecium, UniProt H8L902); test: D-aspartate ligase assay (in vitro addition of D-aspartate onto UDP-MurNac-pentapeptide); assay type: biochemical; conditions: 60 μg membrane or cytoplasmic extracts, 2 hours at 37° C.
T1 construct: membrane or cytoplasmic extracts (60 μg); endogenous in cells; host or cells: Enterococcus faecium D359V8, crude membrane and cytoplasmic extracts
Description: FIG. 2. […] Crude cytoplasmic extract (60 μg of protein) of E. faecium D359V8 were incubated for 2 h with UDP-MurNac-pentapeptide ([…]), D-[^14C]aspartic acid (0.11 mM, 55 mCi/mmol), ATP (20 mM) and MgCl2 (50 mM). D-[^14C]aspartic acid was separated from [^14C]UDP-MurNac-hexapeptide by descending paper chromatography. […] (+) presence of cytoplasmic extracts; (−) absence of crude extracts.
The assay was performed in a total volume of 25 μl containing Tris-Hcl (100 mM, pH 8.5), MgCl2 (50 mM), ATP (20 mM), D-[^14C]aspartic acid (0.11 mM, 55 mCi/mmol, Isobio, Fleurus, Belgium), UDP-MurNac-pentapeptide (0.15 mM) purified from S. aureus as previously described (Billot-Klein et al., 1997), and membrane or cytoplasmic extracts (60 μg). The reaction mixture was incubated 2 h at 37° C. and the reaction was stopped by boiling the samples for 3 min. […] The products of the reaction were also separated by reverse phase high-pressure liquid chromatography (rpHPLC) on a Hypersil C18 column ([…], 4.6×250 […], Interchrom, Montlugon, France) at a flow rate of 0.5 ml/min using isocratic elution (10 mM ammonium acetate, pH 5.0) and detected by the absorbance at 262 nm and liquid scintillation with a Radioflow Detector (LB508; Perkin Elmer, Courtaboeuf, France) coupled to the HPLC apparatus (L-62000A; Merck, Nogent-Sur-Marne, France). […]

E. faecium M512 = conditions: mutant E. faecium M512; cited from earlier work

Compound: O=C(O)C[C@@H](O)C(=O)O [D-malic acid]
- Product Relative intensity (%) (Ldtfm [1]): 10%
- use as acceptor substrate in the exchange reaction with Ac2-L-Lys-D-Ala as the donor (Ldtfm [1]): Formation of depsipeptides

Compound: GlcNAc-MurNAc-L-Ala-D-iGlu-L-(N^ε-D-iAsn)Lys-D-Ala [GlcNAc-MurNAc-tetrapeptide-iAsn]
- use as donor: formation of radioactive peptides with D-[14C]Ala as the acceptor [2]: used as donors

Compound: CC(=O)NCCCC[C@H](NC(C)=O)C(=O)N[C@H](C)C(=O)O [Ac2-L-Lys-D-Ala, N^α,N^ε-diacetyl-L-lysyl-D-alanine] (Ac-Lys(Ac)-[dA]-OH)
- use as donor: formation of radioactive peptides with D-[14C]Ala as the acceptor [2]: used as donors

Compound: GlcNAc-MurNAc-L-Ala-D-iGln-L-(M-D-iAsn)Lys-D-Ala [tetrapeptide-iAsn]
- use as donor in formation of dimers (Ldtfm [3]): formation of dimers

Compound: GlcNAc-MurNAc-L-Ala-D-iGln-L-Lys-D-Ala
- use as acceptor in formation of dimers (Ldtfm [3]): not used as an acceptor
- use as donor in formation of dimers (Ldtfm [3]): formation of dimers

Compound: L-Ala-D-iGlu-L-Lys-D-Ala-D-Ala [pentapeptide]
- use as donor: formation of radioactive peptides with D-[14C]Ala as the acceptor [2]: not detected

Compound: L-Ala-D-iGlu-L-Lys-D-Ala (A[diGlu]K[dA]) [tetrapeptide]
- use as donor: formation of radioactive peptides with D-[14C]Ala as the acceptor [2]: used as donors

Compound: CC(=O)N[C@H]1[C@@H](OP(=O)(O)OP(=O)(O)OC[C@H]2O[C@@H](n3ccc(=O)[nH]c3=O)[C@H](O)[C@@H]2O)O[C@H](CO)[C@@H](O)[C@@H]1O[C@H](C)C(=O)N[C@@H](C)C(=O)N[C@H](CCC(=O)N[C@@H](CCCCN)C(=O)N[C@H](C)C(=O)N[C@H](C)C(=O)O)C(=O)O [UDP-MurNAc-pentapeptide, UDP-N-acetylmuramyl-L-Ala-D-iGlu-L-Lys-D-Ala-D-Ala]
- use as donor: formation of radioactive peptides with D-[14C]Ala as the acceptor [2]: not detected

Compound: N[C@@H](CC(=O)O)C(=O)O [L-[^14C]aspartate]
- formation of hexapeptide when D-[14C]aspartate is replaced [4]: No hexapeptide was formed

Compound: N^α,N^ε-diacetyl-L-lysine-D-alanyl-D-alanine [Ac2-L-Lys-D-Ala-D-Ala]
- use as donor: formation of radioactive peptides with D-[14C]Ala as the acceptor [2]: not detected

Compound: NCC(=O)O [Glycine]
- Product Relative intensity (%) (Ldtfm [1]): 15%

Compound: GlcNAc-MurNAc-L-Ala-D-iGlu-L-(N^ε-D-iAsn)Lys-D-Ala-D-Ala [GlcNAc-MurNAc-pentapeptide-iAsn]
- use as donor: formation of radioactive peptides with D-[14C]Ala as the acceptor [2]: not detected

Compound: UDP-MurNAc-L-Ala-D-iGlu-L-Lys-D-Ala [UDP-MurNAc-tetrapeptide]
- use as donor: formation of radioactive peptides with D-[14C]Ala as the acceptor [2]: used as donors

Compound: C[C@@H](O)C(=O)O [D-lactic acid]
- Product Relative intensity (%) (Ldtfm [1]): 37%
- use as acceptor substrate in the exchange reaction with Ac2-L-Lys-D-Ala as the donor (Ldtfm [1]): Formation of depsipeptides

Compound: CC1(C)S[C@@H]2[C@H](NC(=O)[C@H](N)c3ccccc3)C(=O)N2[C@H]1C(=O)O [ampicillin]
- inhibition of Ldtfm in the exchange assay ([2]; Ldtfm 3 μg, Ac2-L-Lys-D-Ala 0.3 mM, D-[14C]Ala 0.15 mM, various concentration of ampicillin): absence of inhibition; also recorded: not inhibited
- minimal inhibitory concentration (E. faecium M512): > 2000 µg/mL
